Measured values: publication PMC9898036, “VIP152 is a selective CDK9 inhibitor with pre-clinical in vitro and in vivo efficacy in chronic lymphocytic leukemia” (Leukemia, 2022)
Where a chain is given by its changes, count along the chain named. Where two headings read alike, the source gives them in different places.

Tests used:
Cannabinoid CB1 = Cannabinoid CB1 (Homo sapiens, UniProt P21554); assay: Eurofins Diversity Panel; assay type: binding; settings: hum, Conc. 10 μM
KIT(V559D,T670I) = KIT(V559D,T670I) (Homo sapiens, UniProt P10721, T670I/V559D); assay: KINOMEscan: KIT(V559D,T670I); assay type: binding; settings: 1000 nM, read-out: Percent Control
ACVR1B = ACVR1B (Homo sapiens, UniProt P36896); assay: KINOMEscan: ACVR1B; assay type: binding; settings: 1000 nM, read-out: Percent Control
PFCDPK1(P.falciparum) = PFCDPK1(P.falciparum) (Plasmodium falciparum, UniProt P62344); assay: DiscoverX KINOMEscan kinase profiling: PFCDPK1(P.falciparum); assay type: binding; settings: PFCDPK1(P.falciparum) (Entrez CDPK1); 100 nM; read-out: Percent Control
AXL = AXL (Homo sapiens, UniProt P30530); assay: KINOMEscan: AXL; assay type: binding; settings: 1000 nM, read-out: Percent Control
Interleukin IL-1 = Interleukin IL-1 (Mus musculus, UniProt P13504); assay: Eurofins Diversity Panel; assay type: binding; settings: Conc. 10 μM
Nicotinic Acetylcholine = assay: Eurofins Diversity Panel; assay type: binding, human; settings: hum, Conc. 10 μM
Rolipram = assay: Eurofins Diversity Panel; assay type: binding; settings: rat, Conc. 10 μM
CDK9 = CDK9 (Homo sapiens, UniProt P50750); assay: KINOMEscan: CDK9; assay type: binding
Experimental: (§1) The structure and synthesis of VIP152 were recently described by Lücking et al.. (Fig. 1A); however, the selectivity of the molecule in cellular systems has yet to be explored. […] We also performed this experiment at 1000 nM, where CDK9 was inhibited at 99%. […] We found a strong concordance between our data and those of Lücking when comparing the most inhibited kinases. Potential off-target effects of VIP152 were next tested in vitro at a concentration of 10 µM for off-target activity against a broad range of receptors, transporters, ion channels, and enzymes (n = 138) using the Eurofins Diversity Panel.
(§2) Kinomescan Kinase Profiling Assay
(§3) Kinomescan Assay was performed at DiscoverRX and described in Fabian, et al. 2005, Nat.
(§4) Biotechnol. In brief, kinases were produced and subsequently tagged with DNA for qPCR detection.
(§5) Streptavidin-coated magnetic beads were bound to biotinylated kinase ligands to serve as a solid support.
(§6) VIP152 was dissolved in DMSO and tested across a 10 serial threefold dilution set and compared to a test compound and a DMSO control. Kinases which were inhibited by VIP152 would not be bound to the solid-support resulting in decreased substrate for the qPCR reaction. Kinome map was produced via TreeSpot Analysis from DiscoverRX. […]
NanoBRETTM Target Engagement Assay Protocol […]
Complete 20X NanoBRET Tracer Reagent was prepared with Tracer Dilution Buffer and dispensed at a ratio of 1:20 Reagent to cells in the tube. The cell

CAMK1G = CAMK1G (Homo sapiens, UniProt Q96NX5); assay: KINOMEscan: CAMK1G; assay type: binding; settings: 1000 nM, read-out: Percent Control
ABL1 [1] = target: T1, ABL1 (Homo sapiens, UniProt P00519, H396P); assay: KINOMEscan: ABL1; assay type: binding; settings: read-out: Percent Control; for remaining binding at 0.1 µM: 100 nM; for remaining binding at 1 µM: 1000 nM
T1 sequence (P00519 229-512 H396P): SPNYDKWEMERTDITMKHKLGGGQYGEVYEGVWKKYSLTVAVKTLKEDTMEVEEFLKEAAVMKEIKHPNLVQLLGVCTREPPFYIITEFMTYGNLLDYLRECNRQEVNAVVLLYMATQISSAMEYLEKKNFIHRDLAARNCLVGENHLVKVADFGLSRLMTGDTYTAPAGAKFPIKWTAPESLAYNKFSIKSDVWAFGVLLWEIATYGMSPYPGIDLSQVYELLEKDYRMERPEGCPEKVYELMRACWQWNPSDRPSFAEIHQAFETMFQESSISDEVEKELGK
Experimental: as §1, §2, §3, §4, §5, §6

ABL1 [2] = target: T2, ABL1 (Homo sapiens, UniProt P00519, F317L); assay: KINOMEscan: ABL1; assay type: binding; settings: read-out: Percent Control; for remaining binding at 0.1 µM: 100 nM; for remaining binding at 1 µM: 1000 nM
T2 sequence (P00519 229-512 F317L): T1 sequence (P00519 229-512 H396P) with F89L, P168H
Experimental: as §1, §2, §3, §4, §5, §6

ABL1 [3] = target: ABL1 (Homo sapiens, UniProt P00519); assay: KINOMEscan: ABL1; assay type: binding; settings: read-out: Percent Control; for remaining binding at 0.1 µM: 100 nM; for remaining binding at 1 µM: 1000 nM
Experimental: as §1, §2, §3, §4, §5, §6

ABL1 [4] = target: ABL1 (Homo sapiens, UniProt P00519, M351T); assay: KINOMEscan: ABL1; assay type: binding; settings: ABL1(M351T)-phosphorylated, read-out: Percent Control
Experimental: as §1, §2, §3, §4, §5, §6

ABL1 [5] = target: T3, ABL1 (Homo sapiens, UniProt P00519, F317I); assay: KINOMEscan: ABL1; assay type: binding; settings: read-out: Percent Control; for remaining binding at 0.1 µM: 100 nM; for remaining binding at 1 µM: 1000 nM
T3 sequence (P00519 229-512 F317I): T1 sequence (P00519 229-512 H396P) with F89I, P168H
Experimental: as §1, §2, §3, §4, §5, §6

EGFR(G719S) = EGFR(G719S) (Homo sapiens, UniProt P00533, G719S); assay: KINOMEscan: EGFR(G719S); assay type: binding; settings: 1000 nM, read-out: Percent Control
EPHB3 = EPHB3 (Homo sapiens, UniProt P54753); assay: KINOMEscan: EPHB3; assay type: binding; settings: 1000 nM, read-out: Percent Control

Sequence of CDK9 (P50750 whole entry): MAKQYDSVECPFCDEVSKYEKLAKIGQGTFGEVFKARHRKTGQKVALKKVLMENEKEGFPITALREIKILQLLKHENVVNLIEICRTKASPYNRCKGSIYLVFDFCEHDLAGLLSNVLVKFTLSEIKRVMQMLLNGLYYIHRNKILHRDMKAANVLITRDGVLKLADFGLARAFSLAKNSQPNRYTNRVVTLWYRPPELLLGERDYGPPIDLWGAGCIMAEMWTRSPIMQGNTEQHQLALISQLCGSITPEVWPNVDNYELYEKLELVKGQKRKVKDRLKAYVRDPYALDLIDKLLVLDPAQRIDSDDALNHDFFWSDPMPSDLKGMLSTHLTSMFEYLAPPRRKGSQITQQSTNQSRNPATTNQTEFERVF
Sequence of AXL (P30530 26-894): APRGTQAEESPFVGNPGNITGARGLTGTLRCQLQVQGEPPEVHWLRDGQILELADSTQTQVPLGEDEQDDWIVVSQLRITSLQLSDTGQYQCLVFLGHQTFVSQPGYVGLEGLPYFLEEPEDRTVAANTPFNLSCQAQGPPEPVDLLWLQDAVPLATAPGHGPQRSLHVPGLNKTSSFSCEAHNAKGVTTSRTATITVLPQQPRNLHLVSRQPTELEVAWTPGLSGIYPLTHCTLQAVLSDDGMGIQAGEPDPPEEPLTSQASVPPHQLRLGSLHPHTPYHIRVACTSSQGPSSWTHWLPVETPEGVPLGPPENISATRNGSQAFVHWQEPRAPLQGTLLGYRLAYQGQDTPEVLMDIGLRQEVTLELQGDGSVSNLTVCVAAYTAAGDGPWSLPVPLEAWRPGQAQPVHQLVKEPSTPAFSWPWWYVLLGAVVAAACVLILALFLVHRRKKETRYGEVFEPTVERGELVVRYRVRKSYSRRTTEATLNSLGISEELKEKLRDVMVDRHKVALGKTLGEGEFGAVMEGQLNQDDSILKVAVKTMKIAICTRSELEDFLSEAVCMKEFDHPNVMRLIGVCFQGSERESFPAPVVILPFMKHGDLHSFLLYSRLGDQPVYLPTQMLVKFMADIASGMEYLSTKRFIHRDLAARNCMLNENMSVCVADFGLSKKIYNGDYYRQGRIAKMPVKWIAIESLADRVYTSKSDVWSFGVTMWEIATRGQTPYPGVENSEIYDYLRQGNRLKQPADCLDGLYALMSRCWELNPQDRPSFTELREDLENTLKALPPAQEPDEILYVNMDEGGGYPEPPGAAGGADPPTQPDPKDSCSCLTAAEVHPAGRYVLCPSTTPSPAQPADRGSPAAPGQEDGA
Sequence of PFCDPK1(P.falciparum) (P62344 whole entry): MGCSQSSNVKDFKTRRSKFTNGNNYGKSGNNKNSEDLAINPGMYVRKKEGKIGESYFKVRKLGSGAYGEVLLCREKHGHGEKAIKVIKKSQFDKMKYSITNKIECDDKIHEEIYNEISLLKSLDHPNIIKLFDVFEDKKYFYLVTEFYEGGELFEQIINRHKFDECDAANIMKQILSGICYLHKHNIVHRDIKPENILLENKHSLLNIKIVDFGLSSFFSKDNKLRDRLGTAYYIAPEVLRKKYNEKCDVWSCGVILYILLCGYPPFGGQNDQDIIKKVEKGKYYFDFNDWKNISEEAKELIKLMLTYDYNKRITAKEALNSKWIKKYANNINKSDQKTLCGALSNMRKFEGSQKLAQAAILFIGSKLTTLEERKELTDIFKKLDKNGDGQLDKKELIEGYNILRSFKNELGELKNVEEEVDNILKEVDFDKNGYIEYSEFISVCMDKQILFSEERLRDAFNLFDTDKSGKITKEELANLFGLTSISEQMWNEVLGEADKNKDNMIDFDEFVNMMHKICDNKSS
Sequence of EGFR(G719S) (P00533 25-1210 G719S): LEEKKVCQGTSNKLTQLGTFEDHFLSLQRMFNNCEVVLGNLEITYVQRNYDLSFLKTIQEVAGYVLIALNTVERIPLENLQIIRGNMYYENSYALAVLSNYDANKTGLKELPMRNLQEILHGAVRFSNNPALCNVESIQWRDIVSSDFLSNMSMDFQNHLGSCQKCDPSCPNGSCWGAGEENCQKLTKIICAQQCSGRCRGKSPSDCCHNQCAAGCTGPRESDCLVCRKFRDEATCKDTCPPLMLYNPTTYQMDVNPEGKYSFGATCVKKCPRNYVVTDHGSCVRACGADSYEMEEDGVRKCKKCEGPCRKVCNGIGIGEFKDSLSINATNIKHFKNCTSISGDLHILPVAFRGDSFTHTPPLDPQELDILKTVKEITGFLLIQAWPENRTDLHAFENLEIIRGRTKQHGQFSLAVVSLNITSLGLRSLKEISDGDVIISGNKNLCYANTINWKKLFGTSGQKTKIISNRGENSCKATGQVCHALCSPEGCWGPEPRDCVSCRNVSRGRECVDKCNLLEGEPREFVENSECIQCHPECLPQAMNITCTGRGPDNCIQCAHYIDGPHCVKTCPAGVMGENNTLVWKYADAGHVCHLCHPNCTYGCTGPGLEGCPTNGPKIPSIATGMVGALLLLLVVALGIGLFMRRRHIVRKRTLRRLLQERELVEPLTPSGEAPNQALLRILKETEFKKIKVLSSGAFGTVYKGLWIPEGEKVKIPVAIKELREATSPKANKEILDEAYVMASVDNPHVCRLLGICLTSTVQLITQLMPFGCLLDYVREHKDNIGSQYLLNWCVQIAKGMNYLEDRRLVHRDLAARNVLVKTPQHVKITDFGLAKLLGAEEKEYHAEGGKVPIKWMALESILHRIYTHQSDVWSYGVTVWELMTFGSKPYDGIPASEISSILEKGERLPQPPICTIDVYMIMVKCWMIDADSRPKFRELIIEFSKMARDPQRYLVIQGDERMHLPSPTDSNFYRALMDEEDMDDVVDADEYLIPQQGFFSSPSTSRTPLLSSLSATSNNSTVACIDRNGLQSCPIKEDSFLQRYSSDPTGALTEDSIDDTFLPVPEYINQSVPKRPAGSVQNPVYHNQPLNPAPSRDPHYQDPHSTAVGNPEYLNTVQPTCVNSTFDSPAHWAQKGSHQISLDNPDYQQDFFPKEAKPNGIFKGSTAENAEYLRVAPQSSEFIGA
Sequence of KIT(V559D,T670I) (P10721 26-976 V559D/T670I): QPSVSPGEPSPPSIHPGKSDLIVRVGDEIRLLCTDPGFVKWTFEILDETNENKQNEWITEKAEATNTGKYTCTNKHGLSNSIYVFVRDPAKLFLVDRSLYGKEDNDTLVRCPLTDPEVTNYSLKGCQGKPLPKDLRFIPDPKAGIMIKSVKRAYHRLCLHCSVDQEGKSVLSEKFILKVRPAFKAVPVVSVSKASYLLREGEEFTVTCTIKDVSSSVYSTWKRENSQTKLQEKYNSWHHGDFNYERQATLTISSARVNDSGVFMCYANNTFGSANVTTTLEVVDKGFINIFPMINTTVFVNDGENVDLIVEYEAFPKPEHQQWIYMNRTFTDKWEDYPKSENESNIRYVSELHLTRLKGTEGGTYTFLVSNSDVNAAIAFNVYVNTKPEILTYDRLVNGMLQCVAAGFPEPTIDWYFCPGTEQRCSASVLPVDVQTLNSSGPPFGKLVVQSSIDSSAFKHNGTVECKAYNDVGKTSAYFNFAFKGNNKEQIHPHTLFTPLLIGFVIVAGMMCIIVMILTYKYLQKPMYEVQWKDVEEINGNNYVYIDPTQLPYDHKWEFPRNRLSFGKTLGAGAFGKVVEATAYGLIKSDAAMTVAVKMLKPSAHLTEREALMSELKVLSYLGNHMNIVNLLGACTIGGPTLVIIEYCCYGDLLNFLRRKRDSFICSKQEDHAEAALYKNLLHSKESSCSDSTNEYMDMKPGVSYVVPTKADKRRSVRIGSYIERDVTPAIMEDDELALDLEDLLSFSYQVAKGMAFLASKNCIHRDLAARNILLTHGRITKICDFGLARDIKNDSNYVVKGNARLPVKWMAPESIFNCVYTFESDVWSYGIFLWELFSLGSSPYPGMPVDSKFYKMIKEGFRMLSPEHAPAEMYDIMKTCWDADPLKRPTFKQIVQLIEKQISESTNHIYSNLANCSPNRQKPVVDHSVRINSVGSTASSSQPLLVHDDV
Sequence of Interleukin IL-1 (P13504 20-576): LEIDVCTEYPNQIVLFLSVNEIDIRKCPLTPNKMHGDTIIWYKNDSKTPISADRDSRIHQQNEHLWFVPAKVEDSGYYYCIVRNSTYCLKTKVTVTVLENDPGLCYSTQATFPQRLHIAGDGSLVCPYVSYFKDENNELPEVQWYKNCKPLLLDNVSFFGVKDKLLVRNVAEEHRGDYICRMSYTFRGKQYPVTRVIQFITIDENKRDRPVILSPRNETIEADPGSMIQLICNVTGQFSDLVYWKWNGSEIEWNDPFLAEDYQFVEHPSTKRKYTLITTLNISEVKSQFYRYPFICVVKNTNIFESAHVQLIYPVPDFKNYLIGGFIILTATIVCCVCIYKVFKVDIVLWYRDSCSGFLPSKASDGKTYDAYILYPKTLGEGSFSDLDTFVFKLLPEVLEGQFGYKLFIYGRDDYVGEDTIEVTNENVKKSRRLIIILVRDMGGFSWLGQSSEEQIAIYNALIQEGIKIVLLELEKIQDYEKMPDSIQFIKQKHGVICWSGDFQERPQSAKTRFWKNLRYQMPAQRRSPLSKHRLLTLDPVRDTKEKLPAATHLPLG
Sequence of ACVR1B (P36896 24-505): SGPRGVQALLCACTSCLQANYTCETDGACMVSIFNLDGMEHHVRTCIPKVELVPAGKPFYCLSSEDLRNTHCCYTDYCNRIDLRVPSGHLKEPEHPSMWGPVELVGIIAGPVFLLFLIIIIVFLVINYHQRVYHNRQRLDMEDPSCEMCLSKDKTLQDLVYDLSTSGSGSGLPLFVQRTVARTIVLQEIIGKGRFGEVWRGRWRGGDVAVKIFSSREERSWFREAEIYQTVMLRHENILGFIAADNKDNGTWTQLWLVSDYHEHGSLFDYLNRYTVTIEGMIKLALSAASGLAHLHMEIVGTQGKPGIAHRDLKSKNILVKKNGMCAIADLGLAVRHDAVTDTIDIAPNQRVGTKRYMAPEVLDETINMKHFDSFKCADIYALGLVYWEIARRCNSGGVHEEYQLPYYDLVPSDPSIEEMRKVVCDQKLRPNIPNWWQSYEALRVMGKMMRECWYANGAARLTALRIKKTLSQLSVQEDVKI

Structure (SMILES): COc1cc(F)ccc1-c1cc(Nc2cc(CS(C)(=N)=O)ccn2)ncc1F (stereo not shown) [VIP152]
- inhibition at 10 µM (Cannabinoid CB1): 16%
- remaining binding at 1 µM (KIT(V559D,T670I)): 64%
- remaining binding at 1 µM (ACVR1B): 96%
- remaining binding at 0.1 µM (PFCDPK1(P.falciparum)): 97%
- remaining binding at 1 µM (AXL): 50%
- inhibition at 10 µM (Interleukin IL-1): -5%
- % Inh. (Nicotinic Acetylcholine): -9%
- % Inh. (Rolipram): 1%
- inhibition of CDK9 greater than that of CDK7 (CDK9; 100 nM): 7 fold
- inhibition at 0.1 µM (CDK9; 100 nM, read-out: inhibition of CDK9 activity compared with control): 95.3%
- inhibition at 1 µM (CDK9; 1000 nM): 99%
- remaining binding at 0.1 µM (CDK9; CDK9, 100 nM, read-out: Percent Control): 4.7%
- remaining binding at 1 µM (CDK9; CDK9, 1000 nM, read-out: Percent Control): 1%
- remaining binding at 1 µM (CAMK1G): 89%
- remaining binding at 0.1 µM (ABL1 [1]; ABL1(H396P)-nonphosphorylated): 70%
- remaining binding at 1 µM (ABL1 [1]; ABL1(H396P)-nonphosphorylated): 7.6%
- remaining binding at 0.1 µM (ABL1 [1]; ABL1(H396P)-phosphorylated): 100%
- remaining binding at 1 µM (ABL1 [1]; ABL1(H396P)-phosphorylated): 52%
- remaining binding at 0.1 µM (ABL1 [2]; ABL1(F317L)-nonphosphorylated): 100%
- remaining binding at 1 µM (ABL1 [2]; ABL1(F317L)-nonphosphorylated): 52%
- remaining binding at 0.1 µM (ABL1 [2]; ABL1(F317L)-phosphorylated): 95%
- remaining binding at 1 µM (ABL1 [2]; ABL1(F317L)-phosphorylated): 56%
- remaining binding at 0.1 µM (ABL1 [3]; ABL1-nonphosphorylated): 64%
- remaining binding at 1 µM (ABL1 [3]; ABL1-nonphosphorylated): 21%
- remaining binding at 0.1 µM (ABL1 [3]; ABL1-phosphorylated): 73%
- remaining binding at 1 µM (ABL1 [3]; ABL1-phosphorylated): 54%
- remaining binding at 0.1 µM (ABL1 [4]; 100 nM): 86%
- remaining binding at 1 µM (ABL1 [4]; 1000 nM): 43%
- remaining binding at 0.1 µM (ABL1 [5]; ABL1(F317I)-nonphosphorylated): 100%
- remaining binding at 1 µM (ABL1 [5]; ABL1(F317I)-nonphosphorylated): 84%
- remaining binding at 0.1 µM (ABL1 [5]; ABL1(F317I)-phosphorylated): 95%
- remaining binding at 1 µM (ABL1 [5]; ABL1(F317I)-phosphorylated): 33%
- remaining binding at 1 µM (EGFR(G719S)): 86%
- remaining binding at 1 µM (EPHB3): 100%
